Molecules are shown by their SMILES. Active and inactive are the calls of the source. No cut-off for these calls is given here.

From ChEMBL document CHEMBL1158146, “Oppositines A and B, sesquiterpene pyridine alkaloids from a Sri Lankan Pleurostylia opposita” (J Nat Prod, 2006) come the findings set out here.

Assay [1] is described as follows: Cytotoxicity against human HCT 116 cells after 48 hrs by MTT assay. The assay is classed as functional, cell-based. The following applies: HCT-116, 48 h. For orientation: Tetrazolium dyes change colour on reduction, which living cells bring about.
The subject of assay [2] is Human immunodeficiency virus. Description: Antiviral activity against HIV upto 10 ug/mL. The assay is classed as functional, organism-based.
The target of assay [3] is Hypoxia-inducible factor 1-alpha (Homo sapiens) (UniProt Q16665). The assay can be described thus: Inhibition of HIF1alpha.
Chain of Hypoxia-inducible factor 1-alpha (Homo sapiens) (Q16665 whole entry, looked up): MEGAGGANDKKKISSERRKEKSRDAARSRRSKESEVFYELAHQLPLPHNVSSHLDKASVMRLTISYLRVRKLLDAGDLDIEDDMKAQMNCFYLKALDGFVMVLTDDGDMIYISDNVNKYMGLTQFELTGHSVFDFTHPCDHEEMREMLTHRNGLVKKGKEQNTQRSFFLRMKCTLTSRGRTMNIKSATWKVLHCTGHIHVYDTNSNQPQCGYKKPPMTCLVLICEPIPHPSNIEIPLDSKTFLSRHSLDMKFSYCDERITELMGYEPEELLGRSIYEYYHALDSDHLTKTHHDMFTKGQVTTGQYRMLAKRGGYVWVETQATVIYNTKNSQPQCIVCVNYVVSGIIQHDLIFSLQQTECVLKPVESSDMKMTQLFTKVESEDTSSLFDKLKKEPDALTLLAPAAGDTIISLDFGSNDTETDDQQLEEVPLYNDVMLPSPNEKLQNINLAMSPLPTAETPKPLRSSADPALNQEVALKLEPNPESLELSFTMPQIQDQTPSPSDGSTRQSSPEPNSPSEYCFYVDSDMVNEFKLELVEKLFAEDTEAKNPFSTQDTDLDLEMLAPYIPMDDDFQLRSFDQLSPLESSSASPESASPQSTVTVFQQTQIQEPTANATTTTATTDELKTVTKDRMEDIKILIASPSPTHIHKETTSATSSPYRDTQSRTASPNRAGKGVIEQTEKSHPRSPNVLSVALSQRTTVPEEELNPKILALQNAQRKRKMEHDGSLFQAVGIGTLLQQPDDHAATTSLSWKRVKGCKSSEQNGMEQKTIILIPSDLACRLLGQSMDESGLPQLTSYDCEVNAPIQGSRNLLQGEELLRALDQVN

The term EC50 denotes the concentration needed to bring the measured effect to its halfway point. Higher therefore signals weaker potency. Consider `CCC1CCC(=O)O[C@H]2[C@H](OC(C)=O)[C@H](OC(=O)c3ccccc3)[C@@]3(COC(C)=O)[C@H](OC(C)=O)[C@H](OC(C)=O)[C@@H]4[C@@H](OC(C)=O)[C@]3(O[C@]4(C)COC(=O)c3cccnc31)[C@@]2(C)O` (stereo partly specified) [OPPOSITINE A], for which, in assay [1], it took 27 µM to reach a half-maximal effect (EC50). Also, the outcome in assay [2] and in assay [3] was inactive.

Regarding `CCC1CCC(=O)O[C@H]2[C@H](OC(C)=O)[C@H](OC(=O)c3ccccc3)[C@@]3(COC(C)=O)[C@H](OC(C)=O)[C@H](OC(C)=O)[C@@H]4[C@@H](OC(C)=O)[C@]3(O[C@]4(C)COC(=O)c3cccnc31)[C@@H]2C` (stereo partly specified) [OPPOSITINE B], the response in assay [1] was half-maximal at 26 µM (EC50). Besides, the result in assay [2] and in assay [3] was inactive.
